Data on two molecules can be found in patent publication US11957655B2, “Methods of treating hearing loss” (The Regents of the University of California, priority 2015, dated 2024).

For test [1], the system named is UPR induction (CHOP and ATF4 mRNA) in HEK293T cells. The test is described as follows: UPR induction by thapsigargin in HEK293T cells, CHOP and ATF4 mRNA by qPCR. It counts as cell-based. To be noted: HEK293T cells pretreated with ISRIB vs control formulation, then 1 micromolar thapsigargin. The procedure:
In another experiment, HEK293T cells were pretreated with a control formulation or ISRIB, […], then exposed […] to 1 micromolar thapsigargin for 2 hours. CHOP and ATF4 mRNA levels were then assessed by qPCR.

Test [2] has as its system wild type mice exposed to damaging noise. Kind of test: Noise-induced hearing loss in wild type mice, ABR threshold. It counts as in vivo, mouse. The note with it: 2.5 mg/kg intraperitoneal 4 hours before damaging noise, treated vs untreated (FIG. 9, N=3). The procedure: FIG. 9 depicts ABR threshold to click, 8 kHz, and 16 kHz stimuli in mice treated with ISRIB (dotted line, N=3)) compared with vehicle (solid line, N=3). All values are means with error bars indicating the standard error of the mean.
Wild type mice were subjected to the same treatment and cochleae were subsequently removed and apoptotic ER response gene expression was assessed.
ISRIB was delivered […] via intraperitoneal injection 4 hours before exposure to damaging noise, at 2.5 mg/kg.

Test [3] has as its system SERCA2b; cochlear explants from TMTC4 KO and wild type mice. The test is described as follows: UPR stress pathway and Caspase 3 mRNA in cochlear explants treated with thapsigargin. It counts as cell-based, mouse. To be noted: thapsigargin treated cochlear explants from TMTC4 KO and wild type mice (FIG. 2). As to the method:
FIG. 2. SYBR Green measurement of qPCR product measuring RNA expression of spliced X-box binding protein 1 (S-XBP1), the molecular chaperone BiP, the pro-apoptotic protein CHOP, and Caspase 3 in cochlear explants from mice. WT=wild type and KO=TMTC4 knockout mice. +TG indicates explants treated with the SERCA2b inhibitor thapsigargin. In another experiment, cochlear explants from TMTC4 KO and wild type mice were extracted. One group of explants was treated with the SERCA2b inhibitor thapsigargin. The expression of UPR stress pathway genes S-XBP1 BiP, CHOP, and the apoptotic gene Caspase 3 were measured by mRNA quantification (FIG. 2). In the untreated explants, the expression of the UPR stress response markers and of Caspase3 were about equal.

The test system of test [4] is wild type fibroblasts (ER Ca2+). The test is described as follows: Ca2+ quantification in intracellular compartments of fibroblasts by Mag-FURA-2 imaging. It counts as cell-based, mouse. To be noted: ten minutes with 1 micromolar ATP and 1 micromolar thapsigargin. As to the method: In one experiment, quantification of Ca2^+ was performed in intracellular compartments of fibroblasts by Mag-FURA-2 imaging. In wild type fibroblasts, an area of high Ca2^+ concentration in the perinuclear region corresponding to the ER was observed. […] Quantification of the Ca2^+ gradient between ER and cytosol compartments in fibroblasts was also measured in both wild type and TMTC4 KO mice.

Test [5] has as its system SERCA2b; fibroblast cells from TMTC4 KO and wild type mice. Kind of test: UPR stress pathway gene mRNA in fibroblasts treated with thapsigargin. The note with it: TMTC4 KO compared to wild type cells. It is filed as cell-based, mouse. The procedure: Fibroblast cells were generated from TMTC4 KO mice and wild type mice. One group of cells was treated with the SERCA2b inhibitor thapsigargin. The expression of UPR stress pathway genes spliced X-box binding protein 1 (S-XBP1), the molecular chaperone BiP, and the pro-apoptotic protein CHOP were measured by mRNA quantification. The expression of the UPR stress response markers was low and was about equal in untreated wild type and TMTC4 KO cells.

Consider `O=C(COc1ccc(Cl)cc1)N[C@H]1CC[C@H](NC(=O)COc2ccc(Cl)cc2)CC1` [ISRIB, trans-N,N′-(cyclohexane-1,4-diyl)bis(2-(4-chlorophenoxy)acetamide)], for which, in test [1], the “ATF4 mRNA expression” value is “significant and substantial reduction”; the “CHOP mRNA expression” value was “significant and substantial reduction”. Further, the “ABR threshold to clicks at 8 kHz and 16 kHz” value in test [2] is recorded as “lower in treated mice than in untreated mice”.

Regarding `C/C=C(/C)C(=O)O[C@H]1C(C)=C2[C@H]([C@@H]1OC(=O)CCCCCCC)[C@@](C)(OC(C)=O)C[C@H](OC(=O)CCC)[C@@]1(O)[C@H]2OC(=O)[C@@]1(C)O` [thapsigargin], the “expression of UPR stress response markers (S-XBP1, BiP, CHOP) and Caspase 3 mRNA” value in test [3] is “substantially elevated”. The “Ca2+ concentration of perinuclear region (ER)” value in test [4] is reported as “reduced to that observed in the surrounding cytosol”. Also, the “expression of UPR stress response markers (S-XBP1, BiP, CHOP) mRNA” value in test [5] is “substantially elevated in the TMTC4 KO cells compared to wild type cells”.
